Reference: article PMC10382584, “Macrocyclization of linear molecules by deep learning to facilitate macrocyclic drug candidates discovery” (Nature Communications, 2023)

How the values were obtained:
Assay in all cases: biochemical
Parameters in all cases: DiscoveRx KINOMEscan competition binding, percent of DMSO control signal at 100 nM
Details in all cases: read-out: Fig. 4a / Percent Control / Compound 1; percent of DMSO control, competition binding
FLT3-autoinhibited = FLT3-autoinhibited (Homo sapiens, UniProt P36888)
FGFR4 = FGFR4 (Homo sapiens, UniProt P22455)
SLK = SLK (Homo sapiens, UniProt Q9H2G2)
MTOR = MTOR (Homo sapiens, UniProt P42345)
IKK-epsilon = biological target: T1, IKK-epsilon (Homo sapiens, UniProt Q14164)
T1 construct: gene IKBKE

MEK5 = biological target: T2, MEK5 (Homo sapiens, UniProt Q13163)
T2 construct: gene MAP2K5

LZK = biological target: T3, LZK (Homo sapiens, UniProt O43283)
T3 construct: gene MAP3K13

ERBB2 = ERBB2 (Homo sapiens, UniProt P04626)
MLK1 = biological target: T4, MLK1 (Homo sapiens, UniProt P80192)
T4 construct: gene MAP3K9

FLT3(R834Q) = FLT3(R834Q) (Homo sapiens, UniProt P36888, R834Q)
[1] = biological target: T5, ABL1(F317L)-phosphorylated (Homo sapiens, UniProt P00519, F317L)
T5 construct: phosphorylated

AKT3 = AKT3 (Homo sapiens, UniProt Q9Y243)
[2] = biological target: T6, RPS6KA5(Kin.Dom.1-N-terminal) (Homo sapiens, UniProt O75582)
T6 construct: Kin.Dom.1-N-terminal

ALK = ALK (Homo sapiens, UniProt Q9UM73)
MLK2 = biological target: T7, MLK2 (Homo sapiens, UniProt Q02779)
T7 construct: gene MAP3K10

BRSK1 = BRSK1 (Homo sapiens, UniProt Q8TDC3)
LATS1 = LATS1 (Homo sapiens, UniProt O95835)
ACVR2A = ACVR2A (Homo sapiens, UniProt P27037)
PIP5K2C = biological target: T8, PIP5K2C (Homo sapiens, UniProt Q8TBX8)
T8 construct: gene PIP4K2C

CSF1R = CSF1R (Homo sapiens, UniProt P07333)
RIPK4 = RIPK4 (Homo sapiens, UniProt P57078)
[3] = biological target: T9, ABL1(Y253F)-phosphorylated (Homo sapiens, UniProt P00519, Y253F)
T9 construct: phosphorylated

SGK3 = SGK3 (Homo sapiens, UniProt Q96BR1)
MEK1 = biological target: T10, MEK1 (Homo sapiens, UniProt Q02750)
T10 construct: gene MAP2K1

CAMK1 = CAMK1 (Homo sapiens, UniProt Q14012)
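Further: KINOMEscan kinase panel binding assay, signal normalized between DMSO as 100% and a positive control compound as 0%.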

Chain of LATS1 (O95835 whole entry): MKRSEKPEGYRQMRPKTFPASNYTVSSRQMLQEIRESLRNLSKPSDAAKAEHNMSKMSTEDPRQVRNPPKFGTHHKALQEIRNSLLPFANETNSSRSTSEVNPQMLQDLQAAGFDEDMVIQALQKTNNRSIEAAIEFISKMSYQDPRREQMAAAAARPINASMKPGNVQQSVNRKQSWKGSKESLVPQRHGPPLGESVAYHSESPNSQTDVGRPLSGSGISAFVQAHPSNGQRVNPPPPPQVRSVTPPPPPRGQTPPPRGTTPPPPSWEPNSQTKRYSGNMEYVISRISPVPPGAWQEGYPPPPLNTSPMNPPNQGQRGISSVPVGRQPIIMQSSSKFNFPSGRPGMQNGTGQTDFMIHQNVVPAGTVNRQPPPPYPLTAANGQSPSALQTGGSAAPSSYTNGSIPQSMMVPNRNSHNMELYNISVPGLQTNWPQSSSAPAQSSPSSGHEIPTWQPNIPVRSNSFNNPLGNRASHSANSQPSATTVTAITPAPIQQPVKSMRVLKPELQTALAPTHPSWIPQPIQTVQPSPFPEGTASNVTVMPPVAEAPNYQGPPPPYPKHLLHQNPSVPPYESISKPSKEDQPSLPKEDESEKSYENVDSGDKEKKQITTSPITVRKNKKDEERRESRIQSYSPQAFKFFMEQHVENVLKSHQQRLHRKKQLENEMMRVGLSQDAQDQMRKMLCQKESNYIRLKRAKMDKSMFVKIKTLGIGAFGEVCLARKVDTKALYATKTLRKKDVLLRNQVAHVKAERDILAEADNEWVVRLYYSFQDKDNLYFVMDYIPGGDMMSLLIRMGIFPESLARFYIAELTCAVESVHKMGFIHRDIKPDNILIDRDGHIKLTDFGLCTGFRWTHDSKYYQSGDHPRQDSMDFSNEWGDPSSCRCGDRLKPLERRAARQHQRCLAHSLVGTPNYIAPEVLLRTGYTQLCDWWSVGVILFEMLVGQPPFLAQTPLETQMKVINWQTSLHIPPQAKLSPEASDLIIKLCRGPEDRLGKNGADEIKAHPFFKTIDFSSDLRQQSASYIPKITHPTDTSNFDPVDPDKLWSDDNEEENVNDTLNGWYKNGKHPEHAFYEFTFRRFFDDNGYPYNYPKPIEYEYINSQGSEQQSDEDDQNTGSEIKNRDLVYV
Chain of ERBB2 (P04626 whole entry): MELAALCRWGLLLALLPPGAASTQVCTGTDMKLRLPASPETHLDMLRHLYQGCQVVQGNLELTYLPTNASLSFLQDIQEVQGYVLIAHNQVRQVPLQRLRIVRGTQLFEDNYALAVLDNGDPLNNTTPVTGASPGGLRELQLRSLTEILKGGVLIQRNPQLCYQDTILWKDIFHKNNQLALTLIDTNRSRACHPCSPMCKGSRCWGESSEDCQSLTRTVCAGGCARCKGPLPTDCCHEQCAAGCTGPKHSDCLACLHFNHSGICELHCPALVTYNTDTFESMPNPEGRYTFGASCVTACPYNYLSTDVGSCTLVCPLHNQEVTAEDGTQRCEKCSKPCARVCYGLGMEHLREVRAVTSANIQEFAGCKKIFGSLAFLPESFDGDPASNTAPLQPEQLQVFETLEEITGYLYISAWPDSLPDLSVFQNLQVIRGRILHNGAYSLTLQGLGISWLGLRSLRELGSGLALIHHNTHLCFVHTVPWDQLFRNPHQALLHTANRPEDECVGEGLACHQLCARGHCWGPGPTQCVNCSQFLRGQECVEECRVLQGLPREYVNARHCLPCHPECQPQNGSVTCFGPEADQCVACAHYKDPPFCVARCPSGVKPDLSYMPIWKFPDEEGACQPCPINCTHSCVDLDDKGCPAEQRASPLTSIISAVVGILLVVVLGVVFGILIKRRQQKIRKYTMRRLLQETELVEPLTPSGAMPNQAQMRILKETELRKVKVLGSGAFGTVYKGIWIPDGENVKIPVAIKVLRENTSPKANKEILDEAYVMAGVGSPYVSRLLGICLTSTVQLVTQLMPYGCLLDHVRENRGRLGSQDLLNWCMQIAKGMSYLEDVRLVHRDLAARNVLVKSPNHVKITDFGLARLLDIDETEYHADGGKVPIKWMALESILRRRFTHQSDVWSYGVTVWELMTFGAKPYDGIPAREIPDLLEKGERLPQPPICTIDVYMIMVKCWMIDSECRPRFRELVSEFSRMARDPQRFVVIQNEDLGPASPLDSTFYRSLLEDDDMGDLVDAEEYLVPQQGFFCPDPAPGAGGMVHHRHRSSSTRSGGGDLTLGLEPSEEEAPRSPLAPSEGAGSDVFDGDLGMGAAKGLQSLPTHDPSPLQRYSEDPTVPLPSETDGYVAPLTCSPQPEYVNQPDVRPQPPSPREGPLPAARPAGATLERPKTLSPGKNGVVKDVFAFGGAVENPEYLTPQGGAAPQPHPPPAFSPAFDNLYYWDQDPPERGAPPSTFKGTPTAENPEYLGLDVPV
T10 sequence (Q02750 whole entry): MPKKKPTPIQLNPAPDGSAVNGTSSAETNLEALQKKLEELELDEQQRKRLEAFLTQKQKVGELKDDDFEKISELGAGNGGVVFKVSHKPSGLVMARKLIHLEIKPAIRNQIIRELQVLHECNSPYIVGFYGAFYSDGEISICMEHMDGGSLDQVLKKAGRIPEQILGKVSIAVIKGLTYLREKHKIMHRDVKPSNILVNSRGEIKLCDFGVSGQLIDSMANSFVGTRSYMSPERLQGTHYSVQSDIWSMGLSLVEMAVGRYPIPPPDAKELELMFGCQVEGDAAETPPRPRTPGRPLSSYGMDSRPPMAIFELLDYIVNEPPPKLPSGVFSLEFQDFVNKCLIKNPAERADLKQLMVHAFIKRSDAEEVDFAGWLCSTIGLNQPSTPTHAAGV
Chain of AKT3 (Q9Y243 whole entry): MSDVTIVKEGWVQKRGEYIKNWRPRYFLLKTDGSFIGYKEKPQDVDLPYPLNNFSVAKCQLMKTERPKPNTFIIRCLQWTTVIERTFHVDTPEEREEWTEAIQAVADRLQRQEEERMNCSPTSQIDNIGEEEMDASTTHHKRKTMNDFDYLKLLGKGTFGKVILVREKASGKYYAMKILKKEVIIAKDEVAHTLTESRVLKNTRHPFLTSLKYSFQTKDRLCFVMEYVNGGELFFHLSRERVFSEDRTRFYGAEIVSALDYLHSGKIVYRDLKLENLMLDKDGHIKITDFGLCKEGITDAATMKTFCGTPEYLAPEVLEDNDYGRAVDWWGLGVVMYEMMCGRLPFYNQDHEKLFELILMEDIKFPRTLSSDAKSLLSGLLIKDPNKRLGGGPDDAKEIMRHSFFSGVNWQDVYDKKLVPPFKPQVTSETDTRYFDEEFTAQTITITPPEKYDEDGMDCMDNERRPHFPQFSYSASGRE
Chain of RIPK4 (P57078 whole entry): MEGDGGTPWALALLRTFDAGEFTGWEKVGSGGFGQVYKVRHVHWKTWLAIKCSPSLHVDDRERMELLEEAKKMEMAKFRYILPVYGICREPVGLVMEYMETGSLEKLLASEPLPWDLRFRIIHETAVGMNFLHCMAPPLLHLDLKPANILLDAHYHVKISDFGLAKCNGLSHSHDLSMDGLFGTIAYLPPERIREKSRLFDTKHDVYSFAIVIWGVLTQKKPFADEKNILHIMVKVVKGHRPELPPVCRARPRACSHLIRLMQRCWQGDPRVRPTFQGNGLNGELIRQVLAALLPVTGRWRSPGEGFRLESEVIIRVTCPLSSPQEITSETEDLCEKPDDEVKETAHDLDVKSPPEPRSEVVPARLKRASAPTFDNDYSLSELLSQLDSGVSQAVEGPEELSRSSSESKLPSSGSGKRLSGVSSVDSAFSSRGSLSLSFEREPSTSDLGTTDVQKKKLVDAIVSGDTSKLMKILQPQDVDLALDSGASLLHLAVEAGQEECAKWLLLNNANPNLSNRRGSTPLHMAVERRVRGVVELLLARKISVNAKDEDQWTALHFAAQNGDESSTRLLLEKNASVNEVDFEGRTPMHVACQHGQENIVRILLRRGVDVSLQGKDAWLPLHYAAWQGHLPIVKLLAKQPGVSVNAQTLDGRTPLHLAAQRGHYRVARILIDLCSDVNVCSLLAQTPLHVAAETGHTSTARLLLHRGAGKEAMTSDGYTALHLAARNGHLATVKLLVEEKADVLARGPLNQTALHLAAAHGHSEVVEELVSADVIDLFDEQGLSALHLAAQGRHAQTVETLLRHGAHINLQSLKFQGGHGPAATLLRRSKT
T6 sequence (O75582 whole entry): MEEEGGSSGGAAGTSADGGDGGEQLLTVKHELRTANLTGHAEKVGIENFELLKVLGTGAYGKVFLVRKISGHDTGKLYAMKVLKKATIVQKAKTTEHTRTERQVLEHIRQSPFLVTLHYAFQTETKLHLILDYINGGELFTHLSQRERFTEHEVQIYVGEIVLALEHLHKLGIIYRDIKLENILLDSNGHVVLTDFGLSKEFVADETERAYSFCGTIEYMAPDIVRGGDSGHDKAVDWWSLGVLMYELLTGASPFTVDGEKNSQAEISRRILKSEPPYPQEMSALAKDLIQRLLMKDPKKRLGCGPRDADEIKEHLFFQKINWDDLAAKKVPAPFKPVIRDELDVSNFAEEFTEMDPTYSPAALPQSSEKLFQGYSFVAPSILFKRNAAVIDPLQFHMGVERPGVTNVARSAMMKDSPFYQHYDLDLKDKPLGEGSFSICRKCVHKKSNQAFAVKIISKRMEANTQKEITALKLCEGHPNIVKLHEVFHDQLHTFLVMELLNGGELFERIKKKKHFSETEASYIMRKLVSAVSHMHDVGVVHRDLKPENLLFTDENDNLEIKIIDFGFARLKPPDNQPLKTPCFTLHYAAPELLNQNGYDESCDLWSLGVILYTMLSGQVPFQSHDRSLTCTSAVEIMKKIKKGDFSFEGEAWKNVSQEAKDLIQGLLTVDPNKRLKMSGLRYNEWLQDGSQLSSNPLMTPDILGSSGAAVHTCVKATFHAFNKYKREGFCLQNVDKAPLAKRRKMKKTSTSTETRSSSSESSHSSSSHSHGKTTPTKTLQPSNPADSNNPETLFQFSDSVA

Structure (SMILES): Cc1cnc2nc1Nc1cccc(c1)COCc1cc(ccc1OCCN1CCCC1)N2 [Compound 1]
- remaining binding at 0.1 µM (FLT3-autoinhibited): 48%
- remaining binding at 0.1 µM (FGFR4): 97%
- remaining binding at 0.1 µM (SLK): 70%
- remaining binding at 0.1 µM (MTOR): 82%
- remaining binding at 0.1 µM (IKK-epsilon): 100%
- remaining binding at 0.1 µM (MEK5): 22%
- remaining binding at 0.1 µM (LZK): 63%
- remaining binding at 0.1 µM (ERBB2): 96%
- remaining binding at 0.1 µM (MLK1): 100%
- remaining binding at 0.1 µM (FLT3(R834Q)): 23%
- remaining binding at 0.1 µM [1]: 70%
- remaining binding at 0.1 µM (AKT3): 100%
- remaining binding at 0.1 µM [2]: 83%
- remaining binding at 0.1 µM (ALK): 79%
- remaining binding at 0.1 µM (MLK2): 98%
- remaining binding at 0.1 µM (BRSK1): 93%
- remaining binding at 0.1 µM (LATS1): 100%
- remaining binding at 0.1 µM (ACVR2A): 99%
- remaining binding at 0.1 µM (PIP5K2C): 76%
- remaining binding at 0.1 µM (CSF1R): 62%
- remaining binding at 0.1 µM (RIPK4): 65%
- remaining binding at 0.1 µM [3]: 64%
- remaining binding at 0.1 µM (SGK3): 91%
- remaining binding at 0.1 µM (MEK1): 77%
- remaining binding at 0.1 µM (CAMK1): 92%
